In PubChem BioAssay AID256 (DTP/NCI, 2004):
Several values for one entry are separate records, joined by “and”; a condition that tells them apart may be missing. Equal entries are not always repeated. Toxic doses and inconclusive results are not listed.

Tested on: CD2F1 mice, L1210 leukemia ip, survival T/C
Test: NCI In Vivo Anticancer Drug Screen. Data for tumor model L1210 Leukemia (intraperitoneal) in CD2F1 (CDF1) mice
Details: higher = longer survival
Summary of the method: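 Activity against a transplanted murine tumor was judged by comparing the compound group with a vehicle group. The outcome in the treated animals was divided by that in the controls.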

[1] = endpoint: mean survival time, dose: 50.0 mg/kg/injection, schedule: Q01DX009 (ip), vehicle: saline with Tween-80
[2] = endpoint: mean survival time, dose: 100.0 mg/kg/injection, schedule: Q01DX009 (ip), vehicle: saline with Tween-80
[3] = endpoint: mean survival time, dose: 100.0 mg/kg/injection, schedule: Q04DX003 (ip), vehicle: saline with Tween-80
[4] = endpoint: mean survival time, dose: 200.0 mg/kg/injection, schedule: Q01DX009 (ip), vehicle: saline with Tween-80
[5] = endpoint: mean survival time, dose: 200.0 mg/kg/injection, schedule: Q04DX003 (ip), vehicle: saline with Tween-80
[6] = endpoint: mean survival time, dose: 400.0 mg/kg/injection, schedule: Q04DX003 (ip), vehicle: saline with Tween-80
[7] = endpoint: mean survival time, dose: 100.0 mg/kg/injection, schedule: Q01DX001 (ip), vehicle: saline
[8] = endpoint: mean survival time, dose: 200.0 mg/kg/injection, schedule: Q01DX001 (ip), vehicle: saline
[9] = endpoint: mean survival time, dose: 400.0 mg/kg/injection, schedule: Q01DX001 (ip), vehicle: saline
[10] = endpoint: mean survival time, dose: 100.0 mg/kg/injection, schedule: Q04DX003 (ip), vehicle: saline
[11] = endpoint: mean survival time, dose: 200.0 mg/kg/injection, schedule: Q04DX003 (ip), vehicle: saline
[12] = endpoint: mean survival time, dose: 400.0 mg/kg/injection, schedule: Q01DX009 (ip), vehicle: saline with Tween-80
[13] = endpoint: mean survival time, dose: 400.0 mg/kg/injection, schedule: Q04DX003 (ip), vehicle: saline
[14] = endpoint: mean survival time, dose: 12.5 mg/kg/injection, schedule: Q01DX009 (ip), vehicle: saline with Tween-80

In the case of `COc1ccc(/C(C)=N\NC(=O)c2ccccc2)cc1`, the T/C [1] is reported as 91 % of control, the T/C [2] is reported as 94 % of control and the T/C [3] is reported as 98 % of control. The T/C [4] was 89 % of control and the T/C [5] was 104 % of control.

For `CSc1ccccc1C(C)(C)C(=O)O`, the T/C [3] was 105 % of control, the T/C [5] was 105 % of control and the T/C [6] was 96 % of control.

For `O=C(OC(CN1CCCCC1)CN1CCCc2ccccc21)C(O)C(O)C(O)(CO)C(=O)OC(CN1CCCCC1)CN1CCCc2ccccc21` (centres undefined), the T/C [3] was 95 % of control and the T/C [5] was 91 % of control.

`COc1c2occc2c(OC)c2c(=O)cc(/C=C/c3ccccn3)oc12` was tested, and the T/C [7] was 98 % of control, the T/C [8] was 101 % of control and the T/C [9] was 98 % of control.

For `OC[C@@H]1CCCN2CCCC[C@H]12`, the T/C (endpoint: mean survival time, dose: 25.0 mg/kg/injection, schedule: Q04DX003 (ip), vehicle: saline) was 100 % of control, the T/C (endpoint: mean survival time, dose: 50.0 mg/kg/injection, schedule: Q04DX003 (ip), vehicle: saline) was 107 % of control and the T/C [10] was 105 % of control.

In the case of `COc1ccc([C@@H]2c3cc4c(cc3C[C@H]3COC(=O)[C@@H]32)OCO4)cc1OC`, the T/C (endpoint: mean survival time, dose: 11.0 mg/kg/injection, schedule: Q01DX009 (ip), vehicle: saline with Tween-80) is reported as 110 % of control, the T/C (endpoint: mean survival time, dose: 22.0 mg/kg/injection, schedule: Q01DX009 (ip), vehicle: saline with Tween-80) is reported as 110 % of control and the T/C (endpoint: mean survival time, dose: 33.0 mg/kg/injection, schedule: Q01DX009 (ip), vehicle: saline with Tween-80) is reported as 109 % of control. For the same compound, the T/C (endpoint: mean survival time, dose: 67.0 mg/kg/injection, schedule: Q01DX009 (ip), vehicle: saline with Tween-80) was 107 % of control.

In the case of `CN(C)Cc1cc(O)cc(CN(C)C)c1O`, the T/C (endpoint: mean survival time, dose: 75.0 mg/kg/injection, schedule: Q01DX001 (ip), vehicle: other) is reported as 98 % of control, the T/C (endpoint: mean survival time, dose: 150.0 mg/kg/injection, schedule: Q01DX001 (ip), vehicle: other) is reported as 96 % of control and the T/C (endpoint: mean survival time, dose: 300.0 mg/kg/injection, schedule: Q01DX001 (ip), vehicle: other) is reported as 98 % of control.

`O=c1cc[nH]cc1` was tested, and the T/C [2] was 94 % of control, the T/C [10] was 103 % of control and the T/C [4] was 100 % of control. The T/C [11] was 97 % of control, the T/C [12] was 96 % of control and the T/C [13] was 95 % of control.

For `Cn1c(-c2ccc(/C=N\N3CCN(/N=C/c4ccc(-c5c[n+]6ccsc6n5C)cc4)CC3)cc2)c[n+]2ccsc12`, the T/C (endpoint: median survival time, dose: 0.75 mg/kg/injection, schedule: Q01DX005 (ip), vehicle: saline with Tween-80) was 113 % of control, the T/C (endpoint: median survival time, dose: 1.5 mg/kg/injection, schedule: Q01DX005 (ip), vehicle: saline with Tween-80) was 115 % of control and the T/C (endpoint: median survival time, dose: 3.0 mg/kg/injection, schedule: Q01DX005 (ip), vehicle: saline with Tween-80) was 116 % of control.

In the case of `CCc1cccc[n+]1Cc1ccccc1`, the T/C (endpoint: mean survival time, dose: 3.13 mg/kg/injection, schedule: Q01DX009 (ip), vehicle: saline with Tween-80) is reported as 95 % of control, the T/C (endpoint: mean survival time, dose: 6.25 mg/kg/injection, schedule: Q01DX009 (ip), vehicle: saline with Tween-80) is reported as 91 % of control and the T/C [14] is reported as 98 % of control.

For `COC(=O)C[C@](O)(CCC(C)(C)O)C(=O)O[C@@H]1C(OC)=C[C@]23CCCN2CCc2cc4c(cc2[C@H]13)OCO4`, the T/C (endpoint: median survival time, dose: 0.06 mg/kg/injection, schedule: Q01DX009 (ip), vehicle: saline) was 120 % of control, the T/C (endpoint: median survival time, dose: 0.12 mg/kg/injection, schedule: Q01DX009 (ip), vehicle: saline) was 119 % of control and the T/C (endpoint: median survival time, dose: 0.25 mg/kg/injection, schedule: Q01DX009 (ip), vehicle: saline) was 120 % of control. The T/C (endpoint: median survival time, dose: 0.5 mg/kg/injection, schedule: Q01DX009 (ip), vehicle: saline) was 118 % of control and 120 % of control and the T/C (endpoint: median survival time, dose: 4.0 mg/kg/injection, schedule: Q01DX009 (ip), vehicle: saline) was 153 % of control.

For `COc1ccc(CC(N)C(=O)NC2C(CO)OC(n3cnc4c(N)ncnc43)C2O)cc1` (centres undefined), the T/C (endpoint: mean survival time, dose: 75.0 mg/kg/injection, schedule: Q01DX001 (ip), vehicle: saline) was 100 % of control, the T/C (endpoint: mean survival time, dose: 150.0 mg/kg/injection, schedule: Q01DX001 (ip), vehicle: saline) was 95 % of control and the T/C (endpoint: mean survival time, dose: 300.0 mg/kg/injection, schedule: Q01DX001 (ip), vehicle: saline) was 100 % of control.

For `O=C1c2ccccc2C(=O)N1CCCCCBr`, the T/C [2] was 96 % of control, the T/C [3] was 103 % of control and the T/C [4] was 96 % of control. For the same compound, the T/C [5] was 91 % of control, the T/C [12] was 94 % of control and the T/C [6] was 100 % of control.

With `S=C(Nc1ccccn1)c1ccccn1` the T/C (endpoint: mean survival time, dose: 100.0 mg/kg/injection, schedule: Q04DX002 (ip), vehicle: saline with Tween-80) was 111 % of control, the T/C [3] was 100 % of control and the T/C (endpoint: mean survival time, dose: 200.0 mg/kg/injection, schedule: Q04DX002 (ip), vehicle: saline with Tween-80) was 95 % of control. For the same compound, the T/C [5] was 94 % of control, the T/C (endpoint: mean survival time, dose: 400.0 mg/kg/injection, schedule: Q04DX002 (ip), vehicle: saline with Tween-80) was 103 % of control and the T/C [6] was 103 % of control.

In the case of `c1ccc(COCCOc2ccccc2)cc1`, the T/C [3] is reported as 96 % of control, the T/C [5] is reported as 98 % of control and the T/C [6] is reported as 102 % of control.

`O=C(/C=C/C=C/c1ccccc1)c1ccc(Cl)cc1` was tested, and the T/C (endpoint: mean survival time, dose: 37.5 mg/kg/injection, schedule: Q04DX003 (ip), vehicle: saline with Tween-80) was 97 % of control, the T/C (endpoint: mean survival time, dose: 75.0 mg/kg/injection, schedule: Q04DX003 (ip), vehicle: saline with Tween-80) was 97 % of control and the T/C (endpoint: mean survival time, dose: 150.0 mg/kg/injection, schedule: Q04DX003 (ip), vehicle: saline with Tween-80) was 89 % of control. For the same compound, the T/C [5] was 90 % of control and the T/C (endpoint: mean survival time, dose: 300.0 mg/kg/injection, schedule: Q04DX003 (ip), vehicle: saline with Tween-80) was 93 % of control.

With `CC1=NNC(=O)C1CCO` (centres undefined) the T/C (endpoint: median survival time, dose: 25.0 mg/kg/injection, schedule: Q01DX009 (ip), vehicle: Klucel (hydroxypropylcellulose) (HPC)) was 103 % of control, the T/C (endpoint: median survival time, dose: 50.0 mg/kg/injection, schedule: Q01DX009 (ip), vehicle: Klucel (hydroxypropylcellulose) (HPC)) was 100 % of control and the T/C (endpoint: median survival time, dose: 100.0 mg/kg/injection, schedule: Q01DX009 (ip), vehicle: Klucel (hydroxypropylcellulose) (HPC)) was 98 % of control. The T/C (endpoint: median survival time, dose: 200.0 mg/kg/injection, schedule: Q01DX009 (ip), vehicle: Klucel (hydroxypropylcellulose) (HPC)) was 102 % of control, the T/C (endpoint: median survival time, dose: 400.0 mg/kg/injection, schedule: Q01DX009 (ip), vehicle: Klucel (hydroxypropylcellulose) (HPC)) was 103 % of control and the T/C (endpoint: median survival time, dose: 800.0 mg/kg/injection, schedule: Q01DX009 (ip), vehicle: Klucel (hydroxypropylcellulose) (HPC)) was 104 % of control.

With `COc1ccc(C(=O)c2ncccc2C(=O)O)cc1OC` the T/C (endpoint: mean survival time, dose: 12.5 mg/kg/injection, schedule: Q01DX009 (ip), vehicle: other) was 98 % of control, the T/C (endpoint: mean survival time, dose: 25.0 mg/kg/injection, schedule: Q01DX009 (ip), vehicle: other) was 104 % of control and the T/C (endpoint: mean survival time, dose: 50.0 mg/kg/injection, schedule: Q01DX009 (ip), vehicle: other) was 104 % of control. The T/C (endpoint: mean survival time, dose: 100.0 mg/kg/injection, schedule: Q01DX009 (ip), vehicle: other) was 104 % of control and the T/C (endpoint: mean survival time, dose: 200.0 mg/kg/injection, schedule: Q01DX009 (ip), vehicle: other) was 105 % of control.

With `CC(=O)OC1CSC1` the T/C (endpoint: mean survival time, dose: 30.0 mg/kg/injection, schedule: Q01DX001 (ip), vehicle: saline with Tween-80) was 106 % of control, the T/C (endpoint: mean survival time, dose: 60.0 mg/kg/injection, schedule: Q01DX001 (ip), vehicle: saline with Tween-80) was 109 % of control and the T/C (endpoint: mean survival time, dose: 120.0 mg/kg/injection, schedule: Q01DX001 (ip), vehicle: saline with Tween-80) was 101 % of control.

In the case of `COc1ccc2c(c1)C1(C)C/C(=C\c3ccoc3)C(=O)C(C)C1CC2` (centres undefined), the T/C [7] is reported as 94 % of control, the T/C [8] is reported as 94 % of control and the T/C [9] is reported as 102 % of control.

`CC(=O)CC(=O)Nc1ccccc1` was tested, and the T/C [14] was 101 % of control, the T/C (endpoint: mean survival time, dose: 25.0 mg/kg/injection, schedule: Q01DX009 (ip), vehicle: saline with Tween-80) was 97 % of control and the T/C [1] was 97 % of control.

For `C/C=N\N=C(N)N`, the T/C (endpoint: mean survival time, dose: 30.0 mg/kg/injection, schedule: Q01DX010 (ip), vehicle: saline) was 96 % of control, the T/C (endpoint: mean survival time, dose: 60.0 mg/kg/injection, schedule: Q01DX009 (ip), vehicle: saline) was 96 % of control and the T/C (endpoint: mean survival time, dose: 120.0 mg/kg/injection, schedule: Q01DX010 (ip), vehicle: saline) was 91 % of control. The T/C (endpoint: mean survival time, dose: 240.0 mg/kg/injection, schedule: Q01DX009 (ip), vehicle: saline) was 93 % of control and the T/C (endpoint: mean survival time, dose: 480.0 mg/kg/injection, schedule: Q01DX009 (ip), vehicle: saline) was 93 % of control.

For `CCCCCCOC(=O)C(O)c1ccccc1` (centres undefined), the T/C [3] was 103 % of control, the T/C [5] was 103 % of control and the T/C [6] was 97 % of control.

`CCCC(N(C)C)P(=O)(O)O` (centres undefined) was tested, and the T/C [10] was 95 % of control, the T/C [11] was 101 % of control and the T/C [13] was 101 % of control.
